pKd: −log10 of the molar value. Where two headings read alike, the source gives them in different places.
Tests used:
[1] = target: T1, human CA-IX (Homo sapiens, UniProt Q16790); experiment: Surface Plasmon Resonance (SPR) binding kinetics to recombinant human CA-IX (Biacore 8K, single-cycle kinetics, 1:1 binding model); details: for pKd: SPR, 25° C., pH 7.4, read-out: CAIX KD; for Ratio (CAXII/CAIX): KD ratio CAXII/CAIX
T1 construct: purchased Acro CA9-H82E3
Outline: (§1)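 Kinetics are measured at 25° C against streptavidin-captured CA-IX or CA-XII (1200-1800 RU) in PBS-P+ buffer, pH 7.4, containing 1% DMSO. Nine analyte concentrations span 100-0.39 nM, with 1200 s dissociation.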

[2] = target: T2, human CA-XII (Homo sapiens, UniProt O43570); experiment: Surface Plasmon Resonance (SPR) binding kinetics to recombinant human CA-XII (Biacore 8K, single-cycle kinetics, 1:1 binding model); details: pH 7.4, read-out: CAXII KD
T2 construct: purchased Creative BioMart CA12-261H
Outline: as §1

T2 sequence (O43570 25-354): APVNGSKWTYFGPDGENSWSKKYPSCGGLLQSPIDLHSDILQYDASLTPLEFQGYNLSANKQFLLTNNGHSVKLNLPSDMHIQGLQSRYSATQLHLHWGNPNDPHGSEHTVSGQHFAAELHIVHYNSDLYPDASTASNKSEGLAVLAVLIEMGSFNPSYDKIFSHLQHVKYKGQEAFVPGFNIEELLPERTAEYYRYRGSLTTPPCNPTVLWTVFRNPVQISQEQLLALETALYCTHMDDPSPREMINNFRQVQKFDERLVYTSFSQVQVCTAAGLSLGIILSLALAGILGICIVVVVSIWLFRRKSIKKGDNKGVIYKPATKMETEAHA

NS(=O)(=O)c1nnc(NC(=O)C23CC(c4cn(CCNC(=O)[C@@H]5CN(C(=O)CN6CCN(CC(=O)O)CCN(CC(=O)O)CCN(CC(=O)O)CC6)CCN5C(=O)C[C@H](NC(=O)C[C@H](NC(=O)C5CC6(C5)CC(F)(F)C6)C(=O)O)C(=O)O)nn4)(C2)C3)s1.[Lu+3] [Compound 109.61]
pKd ([1]; Chelated Metal: Lu-175): 8.60 to 9.00
pKd ([2]; Chelated Metal: Lu-175, 25° C.): 8.00 to 8.60

CN1CCN(C(=O)CCCC(C)(c2ccc(O)cc2)c2ccc(O)cc2)[C@H](C(=O)N[C@@H](CC(=O)N2CCN(C(=O)CN3CCN(CC(=O)O)CCN(CC(=O)O)CCN(CC(=O)O)CC3)C[C@@H]2C(=O)NCCn2cc(C34CC(C(=O)Nc5nnc(S(N)(=O)=O)s5)(C3)C4)nn2)C(=O)O)C1.[Lu+3] [Compound 107.25]
pKd ([1]; Chelated Metal: Lu-175): > 9.00
pKd ([2]; Chelated Metal: Lu-175, 25° C.): < 8.00

CC(CCC(=O)N[C@@H](CC(=O)N[C@@H](CC(=O)N1CCN(C(=O)CCC(CCC(=O)N2CCN(C(=O)C[C@H](NC(=O)C[C@H](NC(=O)CCC(C)(c3ccc(O)cc3)c3ccc(O)cc3)C(=O)O)C(=O)O)[C@H](C(=O)NCCn3cc(C45CC(C(=O)Nc6nnc(S(N)(=O)=O)s6)(C4)C5)nn3)C2)NC(=O)CN2CCN(CC(=O)O)CCN(CC(=O)O)CCN(CC(=O)O)CC2)C[C@H]1C(=O)NCCn1cc(C23CC(C(=O)Nc4nnc(S(N)(=O)=O)s4)(C2)C3)nn1)C(=O)O)C(=O)O)(c1ccc(O)cc1)c1ccc(O)cc1 (stereo partly drawn) [Compound 131.4]
pKd ([1]; Chelated Metal: None): > 9.00
Ratio (CAXII/CAIX) ([1]; Chelated Metal: None): * (1 < * < 5)
pKd ([2]; Chelated Metal: None, 25° C.): > 9.00

CC(CCC(=O)N[C@@H](CC(=O)N[C@@H](CC(=O)N1CCN(C(=O)CN2CCN(CC(=O)O)CCN(CC(=O)O)CCN(CC(=O)O)CC2)C[C@H]1CCCCn1cc(C23CCC(C(=O)Nc4nnc(S(N)(=O)=O)s4)(CC2)C3)nn1)C(=O)O)C(=O)O)(c1ccc(O)cc1)c1ccc(O)cc1 [Compound 104.1]
pKd ([1]; Chelated Metal: None): > 9.00
Ratio (CAXII/CAIX) ([1]; Chelated Metal: None): * (1 < * < 5)
pKd ([2]; Chelated Metal: None, 25° C.): > 9.00

CC(CCC(=O)N[C@@H](CC(=O)N[C@@H](CC(=O)NC1(C(=O)NCCOCCOCCNC(=O)CN2CCN(CC(=O)O)CCN(CC(=O)O)CCN(CC(=O)O)CC2)CN(C(=O)Cn2cc(CCC(=O)Nc3nnc(S(N)(=O)=O)s3)nn2)C1)C(=O)O)C(=O)O)(c1ccc(O)cc1)c1ccc(O)cc1.[Lu+3] [Compound 103.3]
pKd ([1]; Chelated Metal: Lu-175): 8.00 to 8.60
pKd ([2]; Chelated Metal: Lu-175, 25° C.): < 8.00

CC(CCC(=O)N[C@@H](CC(=O)N[C@@H](CC(=O)NC1(CCCCn2cc(CCCC(=O)Nc3nnc(S(N)(=O)=O)s3)nn2)CCN(C(=O)OCCOCCNC(=O)CN2CCN(CC(=O)O)CCN(CC(=O)O)CCN(CC(=O)O)CC2)CC1)C(=O)O)C(=O)O)(c1ccc(O)cc1)c1ccc(O)cc1.[Lu+3] [Compound 116.2]
pKd ([1]; Chelated Metal: Lu-175): 8.60 to 9.00
pKd ([2]; Chelated Metal: Lu-175, 25° C.): 8.00 to 8.60

NS(=O)(=O)c1nnc(NC(=O)C23CCC(c4cn(CCNC(=O)[C@@H]5CN(C(=O)CN6CCN(CC(=O)O)CCN(CC(=O)O)CCN(CC(=O)O)CC6)CCN5C(=O)CC[C@H](NC(=O)C[C@H](NC(=O)C5CC6(CCC6)C5)C(=O)O)C(=O)O)nn4)(CC2)CC3)s1.[Lu+3] [Compound 109.51]
pKd ([1]; Chelated Metal: Lu-175): > 9.00
pKd ([2]; Chelated Metal: Lu-175, 25° C.): > 9.00

CC(CCC(=O)N[C@@H](CC(=O)N[C@@H](CC(=O)N1CCN(C(=O)CN2CCN(CC(=O)O)CCN(CC(=O)O)CCN(CC(=O)O)CC2)C[C@@H]1C(=O)NCCn1cc(C23CC(C(=O)Nc4nnc(S(N)(=O)=O)s4)(C2)C3)nn1)C(=O)O)C(=O)O)(c1ccc(O)cc1)c1ccc(O)cc1.[Lu+3] [Compound 107.3]
pKd ([1]; Chelated Metal: Lu-175): 8.60 to 9.00
pKd ([2]; Chelated Metal: Lu-175, 25° C.): < 8.00
